Tests used:
Hepatitis C virus [1] = assay: Antiviral activity against Hepatitis C virus subtype 1b infected in HuH7 cells assessed as inhibition of viral replication by RT-PCR analysis in the presence of fetal calf serum; type: functional, organism-based, Hepacivirus hominis; details: genotype 1b, Huh-7
Hepatitis C virus [2] = assay: Antiviral activity against Hepatitis C virus subtype 1a infected in HuH7 cells assessed as inhibition of viral replication by RT-PCR analysis in the presence of fetal calf serum; type: functional, organism-based, Hepacivirus hominis; details: Huh-7
[3] = Cytotoxicity against human HuH7 cells by MTT assay; type: cell-based, Huh-7; details: read-out: TD50 (the source's name)
[4] = Ratio of EC50 for HCV subtype 1a to EC50 for HCV subtype 1b; type: functional
[5] = Cmax in rat at 2.5 mg/kg, po; type: ADME, organism-based; parameters: dose 2.5 mg/kg, route oral; details: in vivo
Hepatitis C virus [6] = assay: Antiviral activity against Hepatitis C virus subtype 1b infected in HuH7 cells assessed as inhibition of viral replication by RT-PCR analysis in the presence of human serum; type: functional, organism-based, Hepacivirus hominis; details: genotype 1b, Huh-7
Rattus norvegicus [7] = assay: AUC in rat plasma at 2.5 mg/kg, po; type: ADME, organism-based; parameters: dose 2.5 mg/kg, route oral; details: in vivo
Rattus norvegicus [8] = assay: Oral bioavailability in rat at 2.5 mg/kg; type: ADME, organism-based; details: in vivo
Rattus norvegicus [9] = assay: Clearance in rat at 2.5 mg/kg, po and 2.5 mg/kg, iv; type: ADME, organism-based; details: in vivo
[10] = Half life in rat at 2.5 mg/kg, po and 2.5 mg/kg, iv; type: ADME, organism-based; details: in vivo

Row | Structure (SMILES) | EC50 (Hepatitis C virus [1]) [µM] | EC50 (Hepatitis C virus [2]) [µM] | CC50 [3] [µM] | further results
1 | CC(=O)Nc1ccc(Sc2ccc(C)cc2Nc2ncnc3nc(C4CCC4)ccc23)cc1 | 3.7 | 15.8 | 49.2 | –
2 | CC(=O)Nc1ccc(Sc2ccc(C)cc2Nc2ncnc3nc(C)ccc23)cc1 | > 50 | > 50 | > 50 | –
3 | CCCc1ccc2c(Nc3cc(C)ccc3Sc3ccc(NC(C)=O)cc3)ncnc2n1 | 0.63 | 13.8 | > 25 | –
4 | CCc1ccc2c(Nc3cc(C)ccc3Sc3ccc(NC(C)=O)cc3)ncnc2n1 | 6.9 | > 12.5 | > 12.5 | –
5 | Cc1ccc(Sc2ccc(O)cc2)c(Nc2ncnc3nc(C4CCCCC4)ccc23)c1 | 0.88 | 2.7 | > 3.12 | –
6 | CCc1ccc2c(Nc3cc(C)ccc3Sc3ccccc3)ncnc2n1 | 3.4 | 18.9 | 22.7 | –
7 | Cc1ccc(Sc2ccccc2)c(Nc2ccnc3cc(C)ccc23)c1 | 1.8 | – | 2.6 | –
8 | Cc1ccc(Sc2ccccc2)c(Nc2cccc3nc(C)ccc23)c1 | 9.9 | 15.7 | 15.9 | –
9 | CC(=O)Nc1ccc(Sc2ccc(C)cc2Nc2ncnc3nc(CC(C)C)ccc23)cc1 | 3.3 | 27.4 | 38.5 | –
10 | Cc1ccc(Sc2ccc(O)cc2)c(Nc2ncnc3nc(Oc4ccccc4)ncc23)c1 | 3.5 | 5.3 | 17.1 | –
11 | Cc1ccc(Sc2ccccc2)c(Nc2ccnc3nc(C)ccc23)c1 | 0.018 | 1.8 | 8.6 | Ratio EC50 [4]: 100
12 | CCCc1ccc2c(Nc3cc(C)ccc3Sc3ccccc3)ncnc2n1 | 0.32 | 9.5 | 11.8 | –
13 | Cc1ccc(Sc2ccccc2)c(Nc2ncnc3nc(C4CCC4)ccc23)c1 | 1.6 | 6.1 | 3.6 | –
14 | CC(=O)Nc1ccc(Sc2ccc(C)cc2Nc2ncnc3nc(C4CC4)ccc23)cc1 | 1.7 | 15.2 | 29.8 | –
15 | Cc1ccc(Sc2ccccc2)c(Nc2ncnc3nc(C)ccc23)c1 | 3.84 | 13.3 | 22.2 | –
16 | Cc1ccc(Sc2ccccc2)c(Nc2ncnc3nc(C4CC4)ccc23)c1 | 3.7 | 10.4 | 9.9 | –
17 | Cc1ccc(Sc2ccc(O)cc2)c(Nc2ncnc3nc(N4CCCCC4)ncc23)c1 | 2.8 | 22 | > 50 | –
18 | Cc1ccc(Sc2ccc(O)cc2)c(Nc2ncnc3nc(N4CCOCC4)ncc23)c1 | 7.3 | 14.1 | > 50 | –
19 | Cc1ccc(Sc2ccccc2)c(Nc2ncnc3nc(CC(C)C)ccc23)c1 | 1 | 13.3 | 7.5 | –

Continued, in another order:

Row | EC50 (Hepatitis C virus [1]) [µM] | EC50 (Hepatitis C virus [2]) [µM] | Structure (SMILES) | CC50 [3] [µM] | further results
20 | 12 | 7.3 | CCOc1ncc2c(Nc3cc(C)ccc3Sc3ccc(O)cc3)ncnc2n1 | 29.7 | –
21 | > 8 | > 8 | COc1ncc2c(Nc3cc(C)ccc3Sc3ccc(O)cc3)ncnc2n1 | > 8 | –
22 | 3.1 | 11.3 | Cc1ccc(Sc2ccc(O)cc2)c(Nc2ncnc3nc(C4CCC4)ccc23)c1 | 31.8 | –
23 | 1.8 | 3.2 | Cc1ccc(Sc2ccc(F)cc2)c(Nc2ncnc3nc(C(C)C)ccc23)c1 | 4.8 | –
24 | 0.25 | 7.1 | CCCc1ccc2c(Nc3cc(C)ccc3Sc3ccc(O)cc3)ncnc2n1 | 31.1 | –
25 | 13.3 | 44.5 | COc1ccc(Sc2ccc(C)cc2Nc2ncnc3nc(C)ccc23)cc1 | 28.6 | –
26 | 3 | 10.5 | Cc1ccc(Sc2ccc(F)cc2)c(Nc2ncnc3nc(C)ccc23)c1 | 6.1 | –
27 | 0.01 | 4.8 | CCSc1ncc2c(Nc3cc(C)ccc3Sc3ccc(O)cc3)ncnc2n1 | 46.9 | –
28 | 11.2 | 18.9 | Cc1ccc(Sc2ccc(NS(C)(=O)=O)cc2)c(Nc2ncnc3nc(C(C)C)ccc23)c1 | > 50 | –
29 | 2.4 | 14.3 | Cc1ccc(Sc2ccc(O)cc2)c(Nc2ncnc3nc(CC(C)C)ccc23)c1 | 11.2 | –
30 | 0.016 | 0.17 | Cc1ccc(Sc2ccc(O)cc2)c(Nc2ncnc3nc(C(C)C)ccc23)c1 | 22.9 | Cmax [5]: 70 nM; EC50 (Hepatitis C virus [6]): 0.17 µM; AUC (Rattus norvegicus [7]): 1580 ng·h/mL; F (Rattus norvegicus [8]): 10%; CL (Rattus norvegicus [9]): 26.3 mL/min/kg; half-life [10]: 3.1 h
31 | 0.47 | 4.6 | Cc1ccc(Sc2ccc(O)cc2)c(Nc2ncnc3nc(C(C)(C)C)ccc23)c1 | 7.1 | –
32 | > 50 | > 50 | Cc1ccc(Sc2ccc(O)cc2)c(Nc2ncnc3nc(N(C)C)ncc23)c1 | > 50 | –
33 | 10 | 62.2 | CCc1ccc2c(Nc3cc(C)ccc3Sc3ccc(O)cc3)ncnc2n1 | 78 | –
34 | 30 | 47.6 | CCNc1ncc2c(Nc3cc(C)ccc3Sc3ccc(O)cc3)ncnc2n1 | > 50 | –
35 | 13.8 | 2.6 | CC(=O)Nc1ccc(Sc2ccc(C)cc2Nc2ncnc3nc(C(C)C)ccc23)cc1 | 28.8 | –
36 | 3.4 | 10.3 | Cc1ccc(Sc2ccccc2)c(Nc2ncnc3nc(C(C)C)ccc23)c1 | 8 | –
37 | 1.7 | 11.4 | COc1ccc(Sc2ccc(C)cc2Nc2ncnc3nc(C(C)C)ccc23)cc1 | 8.8 | –
38 | 0.05 | 23.4 | Cc1ccc(Sc2ccc(O)cc2)c(Nc2ncnc3nc(C)ccc23)c1 | > 100 | –
39 | 1.6 | 10.5 | Cc1ccc(Sc2ccc(O)cc2)c(Nc2ncnc3nc(C4CC4)ccc23)c1 | 17.4 | –
